This assay relates to L1210 leukemia ip in BDF1 mice, survival T/C. Description: NCI In Vivo Anticancer Drug Screen. Data for tumor model L1210 Leukemia (intraperitoneal) in B6D2F1 (BDF1) mice. Particulars: endpoint: mean survival time, higher = longer survival. In short, it runs like this: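 Tumor was transplanted into mice, which were then dosed with test compound or vehicle alone. Survival was recorded for each group, and the treated figure was expressed relative to the control figure.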

[1] abbreviates: dose: 100.0 mg/kg/injection, schedule: Q01DX009 (ip), vehicle: Klucel (hydroxypropylcellulose) (HPC).
[2] abbreviates: dose: 200.0 mg/kg/injection, schedule: Q01DX009 (ip), vehicle: Klucel (hydroxypropylcellulose) (HPC).
[3] abbreviates: dose: 100.0 mg/kg/injection, schedule: Q01DX001 (ip), vehicle: saline.
[4] abbreviates: dose: 200.0 mg/kg/injection, schedule: Q01DX001 (ip), vehicle: saline.
Where [5] appears, read: dose: 100.0 mg/kg/injection, schedule: Q01DX001 (ip), vehicle: carboxymethylcellulose (CMC).
Setting [6] is: dose: 200.0 mg/kg/injection, schedule: Q01DX001 (ip), vehicle: carboxymethylcellulose (CMC).
Where [7] appears, read: dose: 400.0 mg/kg/injection, schedule: Q01DX001 (ip), vehicle: carboxymethylcellulose (CMC).
[8] abbreviates: dose: 50.0 mg/kg/injection, schedule: Q01DX009 (ip), vehicle: Klucel (hydroxypropylcellulose) (HPC).
Setting [9] is: dose: 100.0 mg/kg/injection, schedule: Q04DX003 (ip), vehicle: Klucel (hydroxypropylcellulose) (HPC).
Where [10] appears, read: dose: 200.0 mg/kg/injection, schedule: Q04DX003 (ip), vehicle: Klucel (hydroxypropylcellulose) (HPC).
Where [11] appears, read: dose: 400.0 mg/kg/injection, schedule: Q04DX003 (ip), vehicle: Klucel (hydroxypropylcellulose) (HPC).

Toxic doses and inconclusive results are not listed.

`O=C1CCCCCCCS(=O)(=O)C1`: the T/C was 112 % of control (dose: 75.0 mg/kg/injection, schedule: Q01DX001 (ip), vehicle: carboxymethylcellulose (CMC)) and 104 % of control (dose: 150.0 mg/kg/injection, schedule: Q01DX001 (ip), vehicle: carboxymethylcellulose (CMC)).

Consider `CC1CC(C)CC(C(O)C2CCCCC2)C1` (centres undefined), for which the T/C was 101 % of control (dose: 75.0 mg/kg/injection, schedule: Q01DX001 (ip), vehicle: other) and 106 % of control (dose: 150.0 mg/kg/injection, schedule: Q01DX001 (ip), vehicle: other).

Consider `CCOC(=O)N/N=C(\C)c1ccc(OC)cc1`, for which the T/C was 98 % of control under setting [1] and 112 % of control under setting [2].

For `NC1CCSCC1`, the T/C is, setting by setting: under setting [3], 104 % of control; under setting [4], 96 % of control; (dose: 400.0 mg/kg/injection, schedule: Q01DX001 (ip), vehicle: saline) 96 % of control.

As to `O=C1NC(=S)S/C1=C\c1ccc([N+](=O)[O-])cc1`, under setting [3], the T/C was 90 % of control.

With `Cc1ccc(CNC(=O)Nc2cccc(Cl)c2)cc1`, the T/C was 115 % of control (dose: 100.0 mg/kg/injection, schedule: Q04DX002 (ip), vehicle: Klucel (hydroxypropylcellulose) (HPC)); 102 % of control (dose: 200.0 mg/kg/injection, schedule: Q04DX002 (ip), vehicle: Klucel (hydroxypropylcellulose) (HPC)); 108 % of control (dose: 400.0 mg/kg/injection, schedule: Q04DX002 (ip), vehicle: Klucel (hydroxypropylcellulose) (HPC)).

As to `CCCCOc1c(OC)cc(OC)cc1C(=O)O`, the T/C runs as follows: under setting [5], 102 % of control; under setting [6], 91 % of control; under setting [7], 86 % of control.

As to `CNC(=S)N/N=C/C(CO)=N\NC(=S)NC`, the T/C reads like this: (dose: 50.0 mg/kg/injection, schedule: Q01DX001 (ip), vehicle: carboxymethylcellulose (CMC)) 101 % of control; under setting [5], 103 % of control; under setting [6], 112 % of control; under setting [7], 97 % of control.

Turning to `Cn1cnc(/C(N)=N\O)c1N`, the T/C by setting is: (dose: 25.0 mg/kg/injection, schedule: Q01DX005 (ip), vehicle: saline) 102 % of control; (dose: 50.0 mg/kg/injection, schedule: Q01DX005 (ip), vehicle: saline) 113 % of control; (dose: 100.0 mg/kg/injection, schedule: Q01DX005 (ip), vehicle: saline) 107 % of control.

`CCCCN(CCCC)/N=N/c1nc[nH]c1C(=O)OC`: the T/C is, setting by setting: (dose: 100.0 mg/kg/injection, schedule: Q01DX001 (ip), vehicle: other) 97 % of control; (dose: 200.0 mg/kg/injection, schedule: Q01DX001 (ip), vehicle: other) 97 % of control.

Turning to `O=C(CCl)Nc1ccc(N=Nc2ccccc2)cc1`, the T/C (dose: 25.0 mg/kg/injection, schedule: Q01DX009 (ip), vehicle: Klucel (hydroxypropylcellulose) (HPC)) is 90 % of control and the T/C under setting [8] is 90 % of control.

For the molecule `Nc1c(C(F)(F)F)[nH]c(Cl)nc1=S`, the T/C is 105 % of control (dose: 29.0 mg/kg/injection, schedule: Q01DX Z (ip), vehicle: methylcellulose (MC)) and 94 % of control (dose: 66.0 mg/kg/injection, schedule: Q01DX Z (ip), vehicle: methylcellulose (MC)).

In the case of `CN1CN(c2ccccc2)C2(CCN(C3(c4ccccc4)CCCCC3)CC2)C1=O`, the T/C was 102 % of control (dose: 50.0 mg/kg/injection, schedule: Q01DX001 (ip), vehicle: saline); 92 % of control under setting [3]; 94 % of control under setting [4].

`O=C(c1ccccc1)c1c[nH]c2c(O)ccc(O)c12`: the T/C (dose: 12.5 mg/kg/injection, schedule: Q04DX002 (ip), vehicle: Klucel (hydroxypropylcellulose) (HPC)) was 91 % of control; the T/C (dose: 25.0 mg/kg/injection, schedule: Q04DX002 (ip), vehicle: Klucel (hydroxypropylcellulose) (HPC)) is 95 % of control; the T/C (dose: 50.0 mg/kg/injection, schedule: Q04DX002 (ip), vehicle: Klucel (hydroxypropylcellulose) (HPC)) was 95 % of control.

With `O=[N+]([O-])c1ccc(C(F)(F)F)cc1`, the T/C is 104 % of control (dose: 50.0 mg/kg/injection, schedule: Q01DX009 (ip), vehicle: other) and 101 % of control (dose: 100.0 mg/kg/injection, schedule: Q01DX009 (ip), vehicle: other).

In the case of `O=[N+]([O-])c1ccc2ncccc2c1`, the T/C was 106 % of control under setting [9] and 101 % of control under setting [10].

Take `Cc1ccc(NCc2nc(N)nc(Nc3ccc(C)cc3)n2)cc1`: the T/C was 93 % of control (dose: 100.0 mg/kg/injection, schedule: Q04DX003 (ip), vehicle: saline with Tween-80); 101 % of control (dose: 200.0 mg/kg/injection, schedule: Q04DX003 (ip), vehicle: saline with Tween-80); 97 % of control (dose: 400.0 mg/kg/injection, schedule: Q04DX003 (ip), vehicle: saline with Tween-80).

For `CNC(=O)c1ccc(/C=C/c2c[nH]c3ccccc23)[n+](C)c1`, the T/C is 97 % of control under setting [3] and 95 % of control under setting [4].

Consider `S=C(N/N=C/c1ccc2c(c1)CCC2)Nc1ccccc1`, for which the T/C by setting is: under setting [9], 103 % of control; under setting [10], 92 % of control; under setting [11], 100 % of control.

As to `O=[N+]([O-])c1ccc(N2CCOCC2)cc1`, the T/C under setting [9] is 95 % of control, the T/C under setting [10] is 100 % of control and the T/C under setting [11] is 105 % of control.

For `CCOC(=O)C1(C(=O)OCC)CC(C)C1`, the T/C was 101 % of control (dose: 100.0 mg/kg/injection, schedule: Q01DX009 (ip), vehicle: saline); 101 % of control (dose: 100.0 mg/kg/injection, schedule: Q04DX003 (ip), vehicle: saline); 108 % of control (dose: 200.0 mg/kg/injection, schedule: Q01DX009 (ip), vehicle: saline); 93 % of control (dose: 200.0 mg/kg/injection, schedule: Q04DX003 (ip), vehicle: saline); 96 % of control (dose: 400.0 mg/kg/injection, schedule: Q01DX009 (ip), vehicle: saline); 104 % of control (dose: 400.0 mg/kg/injection, schedule: Q04DX003 (ip), vehicle: saline).

In the case of `O=C(CNC(=O)OCc1ccccc1)NCCCCCCCCCCNC(=O)CNC(=O)OCc1ccccc1`, the T/C by setting is: (dose: 10.0 mg/kg/injection, schedule: Q01DX Z (ip), vehicle: saline) 104 % of control; (dose: 30.0 mg/kg/injection, schedule: Q01DX Z (ip), vehicle: saline) 90 % of control; (dose: 100.0 mg/kg/injection, schedule: Q01DX Z (ip), vehicle: saline) 90 % of control; (dose: 300.0 mg/kg/injection, schedule: Q01DX Z (ip), vehicle: saline) 95 % of control.

Regarding `O=S1Cc2cc3ccccc3cc2C1`, the T/C was 102 % of control (dose: 100.0 mg/kg/injection, schedule: Q01DX001 (ip), vehicle: saline with Tween-80); 103 % of control (dose: 200.0 mg/kg/injection, schedule: Q01DX001 (ip), vehicle: saline with Tween-80); 108 % of control (dose: 400.0 mg/kg/injection, schedule: Q01DX001 (ip), vehicle: saline with Tween-80).

Turning to `CCCCCCCCCCCSCCCCCCCCSCCCCCCCCCCC`, the T/C reads like this: (dose: 100.0 mg/kg/injection, schedule: Q01DX001 (ip), vehicle: Klucel (hydroxypropylcellulose) (HPC)) 87 % of control; (dose: 200.0 mg/kg/injection, schedule: Q01DX001 (ip), vehicle: Klucel (hydroxypropylcellulose) (HPC)) 92 % of control; (dose: 400.0 mg/kg/injection, schedule: Q01DX001 (ip), vehicle: Klucel (hydroxypropylcellulose) (HPC)) 91 % of control.

As for `CCO/C=N\c1c(C#N)c(CC#N)nn1-c1ccccc1`, the T/C was 100 % of control under setting [8], 91 % of control under setting [1] and 100 % of control under setting [2].

For `CS(=O)(=O)OCCCOS(C)(=O)=O`, the T/C (dose: 9.37 mg/kg/injection, schedule: Q01DX009 (ip), vehicle: Klucel (hydroxypropylcellulose) (HPC)) was 101 % of control; the T/C (dose: 18.75 mg/kg/injection, schedule: Q01DX009 (ip), vehicle: Klucel (hydroxypropylcellulose) (HPC)) is 102 % of control; the T/C (dose: 37.5 mg/kg/injection, schedule: Q01DX009 (ip), vehicle: Klucel (hydroxypropylcellulose) (HPC)) is 106 % of control; the T/C (dose: 75.0 mg/kg/injection, schedule: Q01DX009 (ip), vehicle: Klucel (hydroxypropylcellulose) (HPC)) is 116 % of control; the T/C (dose: 150.0 mg/kg/injection, schedule: Q01DX009 (ip), vehicle: Klucel (hydroxypropylcellulose) (HPC)) is 90 % of control.

Source of the values: PubChem BioAssay AID248 (DTP/NCI, 2004).
